Measured values reported in US20060008542A1, “Preparation containing a mixture of picrorrhiza and ginkgo for the relief of disease” (priority 2002, published 2006).

System: neutrophil respiratory burst (PMA-stimulated neutrophils of peripheral blood)
Assay: Dihydrorhodamine flow cytometric assay for the effect of plant extracts on neutrophil respiratory burst on peripheral blood
Format: cell-based, human
Details: Homo sapiens, Neutrophil; apocynin 300 ug/ml, from calibration curve
Description: 3 Dihydrorhodamine Flow Cytometric Assay for the Effect of Plant Extracts on Neutrophil Respiratory Burst on Peripheral Blood An aliquot (200 μg) of every fraction (obtained by the methods described above) was prepared for assay. The left hand column (Extract number) will be the number used to denote that fraction in subsequent studies and corresponds to the Fraction numbers (“BR0000n”) used above reduced to 1,2, etc., by removal of the “BR00000”. Neutrophils kill organisms they have ingested by exposing them to chemicals known as reactive oxygen species (eg. hydrogen peroxide and hydroxyl ions). These are generated by a process known as the neutrophil respiratory burst. […] Respiratory burst occurs when stimulated neutrophils convert molecular oxygen to oxygen radicals through the activation of NADPH-oxidase. In the dihydrorhodamine (DHR) flow cytometric assay, the respiratory burst is used to produce fluorescent molecules that can be detected by flow cytometry. […] The extent of respiratory burst product can be further quantified using the mean fluorescence intensity of the FL-1 channel (MFI). […] Any background fluorescence (as a further control) is estimated using a tube containing only blood and DHR. […]

Structure (SMILES)	inhibition at 300 µg/mL [%]
COc1cc(C(C)=O)ccc1O [Apocynin, 4-hydroxy-3-methoxyacetophenone]	45

Same assay, conditions: Table 4, apocynin alone

Structure (SMILES)	Assay Result
COc1cc(C(C)=O)ccc1O [Apocynin, 4-hydroxy-3-methoxyacetophenone]	48

System: not listed separately
Assay: log P (Partition Ratio between Octanol/Water)
Details: cucurbitacins present in natural Picrorrhiza kurroa
Description: By most polar is meant a component (or Component) having log P of −2 or more negative, where P is the Partition Ratio between Octanol/Water.
The Table immediately below lists the cucurbitacins present in natural Picrorrhiza kurroa together with their log P value.

Structure (SMILES)	log P
CC(=O)OC(C)(C)/C=C/C(=O)[C@](C)(O)[C@H]1[C@H](O)C[C@@]2(C)[C@@H]3CC=C4[C@H](C[C@H](O)C(=O)C4(C)C)[C@]3(C)C(=O)C[C@]12C [cucurbitacin B]	2.5 ± 0.6
CC(C)(O)/C=C/C(=O)[C@](C)(O)[C@H]1[C@H](O)C[C@@]2(C)[C@@H]3CC=C4[C@@H](C[C@H](O)C(=O)C4(C)C)[C@]3(C)C(=O)C[C@]12C [cucurbitacin D]	1.7 ± 0.6
CC(=O)OC(C)(C)/C=C/C(=O)[C@](C)(O)[C@H]1[C@H](O)C[C@@]2(C)[C@@H]3CC=C4[C@@H](C=C(O)C(=O)C4(C)C)[C@]3(C)C(=O)C[C@]12C [cucurbitacin E]	3.4 ± 0.6
CC(C)(O)/C=C/C(=O)[C@](C)(O)[C@H]1[C@H](O)C[C@@]2(C)[C@@H]3CC=C4[C@@H](C[C@H](O)[C@@H](O)C4(C)C)[C@]3(C)C(=O)C[C@]12C [cucurbitacin F]	1.9 ± 0.6
CC(C)(O)/C=C/C(=O)[C@](C)(O)[C@H]1[C@H](O)C[C@@]2(C)[C@@H]3CC=C4[C@@H](C=C(O)C(=O)C4(C)C)[C@]3(C)C(=O)C[C@]12C [cucurbitacin I]	2.5 ± 0.5
CC(C)(O)CCC(=O)[C@](C)(O)[C@H]1[C@H](O)C[C@@]2(C)[C@@H]3CC=C4[C@@H](C[C@H](O)C(=O)C4(C)C)[C@]3(C)C(=O)C[C@]12C [cucurbitacin R]	1.9 ± 0.6

System: not listed separately
Assay: physchem
Details: not given

logP	Structure (SMILES)
≥ 5	CCCCCCCCCCCCCCCCCC(O)CCCCCCCCC (centres unmarked) [10-heptacosanol]
≥ 5	CCCCCCCCCCCCCCCCCCCC(O)CCCCCCCCC (centres unmarked) [10-nonacosanol]
≥ 5	CCCCCCCCCCCCCCCCC(O)CCCCCCCCCCCC (centres unmarked) [13-nonacosanol]
1.6	COc1cc(C(C)=O)ccc1O [Apocynin, 4-hydroxy-3-methoxyacetophenone]
-1.2	COc1cc(C(C)=O)ccc1O[C@@H]1O[C@H](CO)[C@@H](O)[C@H](O)[C@H]1O [androsin]
≥ 5	CCCCCCCCCCCCCCCCCCCCCCCCCCCCC [nonacosane]
≥ 5	CCCCCCCCCCCCCCCC(=O)OCC(COC(=O)CCCCCCCCCCCCCCC)OC(=O)CCCCCCCCCCCCCCC [tripalmitin]

Continued, compound first:

Structure (SMILES)	logP
O=c1cc(-c2ccc(O)c(-c3c(O)cc(O)c4c(=O)cc(-c5ccc(O)cc5)oc34)c2)oc2cc(O)cc(O)c12 [amentoflavone]	≥ 5
OCC1=C[C@@H](O)[C@@H]2C=CO[C@@H](O[C@@H]3O[C@H](CO)[C@@H](O)[C@H](O)[C@H]3O)[C@H]12 [aucubin]	≤ -2
COc1ccc(-c2cc(=O)c3c(O)cc(O)cc3o2)cc1-c1c(O)cc(O)c2c(=O)cc(-c3ccc(O)cc3)oc12 [bilobetin]	≥ 5
OC[C@H]1O[C@@H](O[C@@H]2OC=C[C@H]3[C@H](O)[C@@H]4O[C@]4(CO)[C@@H]23)[C@H](O)[C@@H](O)[C@@H]1O [catalpol]	≤ -2
COc1cc(O)c2c(=O)cc(-c3ccc(OC)c(-c4c(O)cc(O)c5c(=O)cc(-c6ccc(O)cc6)oc45)c3)oc2c1 [ginkgetin]	≥ 5
COc1ccc(-c2cc(=O)c3c(O)cc(O)c(-c4cc(-c5cc(=O)c6c(O)cc(O)cc6o5)ccc4OC)c3o2)cc1 [isoginkgetin]	≥ 5
CC[C@H](/C=C/[C@@H](C)[C@H]1CC[C@H]2[C@@H]3CC=C4C[C@@H](O)CC[C@]4(C)[C@H]3CC[C@]12C)C(C)C [stigmasterol]	≥ 5
O=C(/C=C/c1ccc(O)c(O)c1)O[C@H]1[C@@H]2C=CO[C@@H](O[C@@H]3O[C@H](CO)[C@@H](O)[C@H](O)[C@H]3O)[C@@H]2[C@@]2(CO)O[C@@H]12 [verminoside]	≤ -2
